Test results published in patent publication US20210346288A1, “PHARMACEUTICAL FORMULATION CONTAINING ACTIVE METABOLITES OF REMDESIVIR FOR INHALATION” (priority 2020, published 2021).

How the values were obtained:
[1] = Influence of pH and pH adjuster on stability of RV-MP solution (HPLC impurities, 60° C./75% RH); assay type: physicochemical
Description: (§1) Remdesivir monophosphate disodium salt is the salt of nucleoside monophosphate. The stability of remdesivir monophosphate disodium salt (referred to as RV-MP) is highly dependent on the pH. Four samples were prepared, having pH 3.0, 4.0, 5.0, 6.0. 23 ml of purified water was adjusted to the target pH with hydrochloric acid. RV-MP according to the amounts provided in table 5 was added to the solution, and the resulting mixture was sonicated until completely dissolved. The resulting mixture was adjusted to the target pH with hydrochloric acid. Finally, purified water was added to provide a final weight of 25.0 g.
(§2) Impurities Detection Method: HPLC Detection Method • Column: YMC-triart C 18, 4.6*150 mm, S-5 μm, 12 nm; • Flow: 0.8 ml/min • Injection volume: […], • Column temperature: 40° C. • A: Weigh 2.7 g of sodium dihydrogen phosphate, add 1 L of purified water, stir to dissolve, and filter to obtain. • B: Methanol
as §1, with “The” for “Remdesivir monophosphate disodium salt is the salt of nucleoside monophosphate. The”, “Five” for “Four”, “3.2, 3.5, 3.8, 4.0.” for “4.0, 5.0, 6.0.”, “citric” for “hydrochloric”, “Table 10” for “table 5”
as §1, with “The” for “Remdesivir monophosphate disodium salt is the salt of nucleoside monophosphate. The”, “Five” for “Four”, “3.2, 3.5, 3.8, 4.0.” for “4.0, 5.0, 6.0.”, “HCl.” for “hydrochloric acid.”, “Table 16” for “table 5”, “Then the” for “The”

[2] = Strong degradation test under light conditions (HPLC impurities); assay type: physicochemical
Description: as §2
Sample 15: 60 mg RV_MP dissolved in 100 ml purified water.
The sample 15 was placed in light conditions, and the placement time was 2 hours, 4 hours, 6 hours, 24 hours, 48 hours, 72 hours, and the impurity detection method in Example 5 was used to detect the samples.
The impurity detection method of the present invention is the same as the impurity detection method in Example 5.

remdesivir monophosphate disodium salt [RV-MP]
Stability of RV-MP solution at 60° C. ([1]; 60° C.): unstable | Stability of RV-MP formulations ([1]; adjusting pH using HCl): stable at pH 3.0-4.0 | pH of highest stability ([1]; adjusting pH using HCl, pH 3.0-6.0 tested): 3.0 | Stability of resulting solution ([1]; using HCl to adjust the pH, compared with citric acid): more stable | Stability of resulting solution ([1]; using citric acid to adjust the pH, especially at pH3.0): unstable | Stability of RV-MP solution under light condition [2]: unstable
